The values below come from publication PMC11672137, “High-Affinity Lectin Ligands Enable the Detection of Pathogenic Pseudomonas aeruginosa Biofilms: Implications for Diagnostics and Therapy” (JACS Au, 2024).

SMILES strings stand for the structures.

The test has as its system P. aeruginosa PAO1 biofilms. In words: In vitro biofilm staining under flow conditions, compound supplementation to the medium. In kind it is cell-based, Pseudomonas aeruginosa. The note with it: 3 mL/h. The protocol:
P. aeruginosa biofilms were grown under flow conditions and observed by fluorescence microscopy in analogy to Ghanbari et al.[66] To this end, P. aeruginosa PAO1 expressing the red fluorescent protein mCherry[56] was diluted to an OD600 nm of 0.1 and injected into the microfluidics device. After a 30-min settling period, biofilms were grown under a constant laminar flow rate of 3 mL/h per channel. Following 48 h of incubation at 30 °C, dense and mature P. aeruginosa PAO1 biofilms were observed, which were then further used for analysis of the imaging probes.
To circumvent these technical drawbacks, the addition of compounds to the medium reservoir and retention at the biofilm was pursued. Imaging compounds were added to the medium reservoirs at a concentration of 500 nM, which were continuously pumped (3 mL/h) through the flow cell for 4 h. Compound accumulation at mature P. aeruginosa biofilms was immediately analyzed using fluorescence microscopy. Afterwards, the medium was exchanged, and the biofilms were washed for 30 min (3 mL/h, no compound) to monitor the retention (Figure 5). Furthermore, an analysis using CLSM was also performed after 4 h of accumulation without washing (Figures 5 and S22).
Figure 5 Staining of P. aeruginosa PAO1 biofilms grown under flow conditions with compound supplementation to the medium. Biofilm staining with (A) fluorescein divalent probe 17, (B) fluorescein control 24, (C) BODIPY divalent probe 19, and (D) BDP FL azide control 18 was monitored after 4 h of accumulation under constant flow (3 mL/h) of LB media containing 500 nM of respective compound. Retention of imaging compounds is shown after a subsequent wash period for 30 min with medium (3 mL/h, no compound). Images were recorded by using a fluorescence microscope. CLSM was performed for (E) BODIPY divalent probe 19 and the control (F) BDP FL azide 18 after 4 h of accumulation. Green signal originates from fluorescently labeled probes 17 and 19 and controls 24 and 18. P. aeruginosa constitutively expressing mCherry from pMP7605^56 is shown in red. Z-Stack size, 2 μm. Scale bar = 50 μm.
In vitro biofilm staining under flow conditions
The flow cell experiment was set up in analogy to Ghanbari et al. and in this study, optimized and established for biofilm staining.25 In principle, the experiment is based on an inlet connected to a medium source, a peristaltic pump providing constant medium flow, a flow chamber enabling analysis of bacterial growth and an outlet (waste container/bottle).
The medium used in the flow system was LB diluted by factor 5 containing 60 µg/mL
Gm. Silicone tubings 1.6 mm (ibidi, Germany) were used transporting medium from inlet to the peristaltic pump (Watson-Marlow Fluid Technology Solutions). Stopper hoses (CarlRoth) placed in peristaltic pump were coupled to silicone tubes via connectors (ibidi, Germany).
Stopper hoses are connected to bubble traps (obtained by Claus Sternberg, DTU Copenhagen) via 0.8 mm silicone tubing (ibidi, Germany). Bubble traps were used to remove air from the medium flow and to avoid biofilm disruption. Downstream from the bubble traps, the flow cell (μ-Slide VI 0.4 ibiTreat, ibidi, Germany) was placed into the system and connected to 1.6 mm silicone tubes (ibidi, Germany). The outlet is leading the medium from flow chamber to a waste […]
In order to inoculate the flow cell with P. aeruginosa PAO1 mCherry (pMP7605)23 the silicone tubes upstream and downstream of the flow chamber were pinched off by using commercial plastic clamps. The medium flow was stopped and the flow cell was inoculated by injecting 300 µL of the bacterial suspension (OD600nm of 0.1) into the silicone tubing upstream of the flow chamber. For this, a cannula (0.30 x 12 mm, Sterican) was used. The injection point was sealed with silicone glue. After bacterial settling time of 30 min, the flow was started again and clamps were removed. Growth temperature was regulated by using a heat system (ibidi, […]
Germany). […]

As for `O=C(CCc1ccc(O[C@@H]2O[C@H](CO)[C@H](O)[C@H](O)[C@H]2O)cc1)Nc1ccc(CN(CCc2cn(CCOCCOCCOCCNC(=S)Nc3ccc4c(c3)C(=O)OC43c4ccc(O)cc4Oc4cc(O)ccc43)nn2)Cc2ccc(NC(=O)CCc3ccc(O[C@@H]4O[C@H](CO)[C@H](O)[C@H](O)[C@H]4O)cc3)cc2)cc1` [compound 17], the “Biofilm staining after accumulation” value (500 nM in medium, 4 h, fluorescence microscope) is on record as “successfully stained PAO1 biofilms”. Further, the “Retention at biofilm after wash” value (after 4 h accumulation at 500 nM, 30 min wash, no compound) is “still visible at a lower intensity”.
